Laboratory results taken from US20070207112A1, “Anti-acne composition” (GRANT INDUSTRIES, INC., priority 2006, published 2007).
Residues, ends and D or L forms follow the SMILES beside them.

Tests used:
[1] = test system: P. acnes; details: cited from earlier work
[2] = test system: P. acnes; type: cell-based; details: salicylate 0.08% to 5%
Source text: In-Vitro testing for the synergetic inhibitory effects of Compound A and salicylic acid on the growth of P. acnes.
The objective of this experiment was to establish the minimal inhibitory concentration (MIC) of the peptide (Compound A) towards the bacterium P. acnes, in the presence of a range of concentrations of sodium salt of salicylic acid. MIC is defined as the lowest concentration of an active material resulting in lack of microbial growth. P. acnes (BD, cat. #237038, batch #6152097) was inoculated at 3 different dilutions and grown on blood agar plates for one week in anaerobic condition at 37 deg. C. Bacteria were then inoculated in thioglycollate broth in a 96 well plate, at the density equal to 0.5 McFarland standard in the presence of peptide (Compound A) concentrations ranging from 0.25 ug/ml to 32 ug/ml and salicylate concentrations ranging from 0.08% to 5% (checker method). MIC was determined visually and confirmed by spectrophotometry at 490 nm and 590 nm on the BioRad 3550-UV microplate reader.

Row | Compound | MIC against P. acnes (in words) ([1]; in-vitro, reported in earlier filings) | Effect of added sodium salicylate on antimicrobial activity of the peptide [2] | Antibacterial activity against P. acnes ([1]; U.S. Pat. No. 4,520,133)
1 | CC(C)C[C@H](NC(=O)[C@H](C)NC(=O)[C@H](CCCCN)NC(=O)[C@H](CC(C)C)NC(=O)[C@H](C)NC(=O)[C@H](CCCCN)NC(=O)[C@H](CC(C)C)NC(=O)[C@H](CC(C)C)NC(=O)[C@H](C)NC(=O)[C@H](CCCCN)NC(=O)[C@H](CC(C)C)NC(=O)[C@H](C)NC(=O)[C@H](CCCCN)NC(=O)[C@H](C)NC(=O)[C@@H](N)Cc1ccccc1)C(N)=O [Compound A, FAKALKALLKALKAL-NH2] (H-FAKALKALLKALKAL-NH2; N-terminus assumed) | low in-vitro minimum inhibitory concentration (MIC) against P. acnes | strongly enhance its antimicrobial activity | 
2 | O=C(O)c1ccccc1O [salicylic acid, reference compound] |  |  | does not posses any antibacterial activity against P. acnes
